# Results: patent US20030144345A1, “Treatment of metabolic diseases with soraphen derivatives” (priority 2001, published 2003)
# Where two headings read alike, the source gives them in different places.
# Experiments:
# [1] = target: T1, human ACCβ enzyme (Homo sapiens, UniProt O00763); assay: Human ACCβ enzyme activity / inhibition assay (radiometric); type: biochemical; conditions: for IC50: purified recombinant human ACCβ, saturating substrate concentrations, read-out: IC50 against purified ACCβ enzyme; for Effect on K0.5 of K-citrate / Effect on Vmax of the ACC enzyme reaction: titration of compound at 0.5, 1 and 2 times IC50
# T1 construct: The cloning of the full length human muscle-type ACCβ cDNA and expression in HEK293 cells; made in house; host or cells: HEK293 cells (ATCC CRL-1573), plasmid pRF33D
# Description: The cloning of the full length human muscle-type ACCβ cDNA and expression in HEK293 cells (ATCC, #CRL-1573) was performed as follows. The ACCβ cDNA was amplified by the polymerase chain reaction (PCR) and was cloned using standard recombinant DNA techniques. The PCR reaction was performed with the Expand Long Template PCR System (Roche Molecular Biochemicals, #1 681 8340) and 0.5 ng of cDNA from human skeletal muscle as template. The primers used for PCR amplification were designed on the basis of the published sequence of the human ACCβ cDNA isolated from a human liver cDNA library (Abul-Elheiga et al. J. Biol Chem. 272, 10669-10677, 1997). The sequence of the forward primer ACCB1 was 5′-[…]-3′; it includes a NheI restriction cleavage site for subcloning and a Kozak translation initiation consensus sequence preceding the ATG start codon. The sequence of the reverse primer ACCB8 was 5′-[…]-3′; it includes a stop codon and a XhoI restriction cleavage site for subcloning. The amplified DNA fragment of approximately 7.4 kb was cloned into a mammalian expression vector. The resulting plasmid isolates, pRF33A, B, C, D, and E were individually transfected in human embryonic kidney 293 cells (HEK293) using a standard lipid transfection method. Cell extracts of transfected cells were prepared in a lysis buffer containing 0.4 mg/ml digitonin and enzyme activity was determined using a radiometric ACC activity assay as described below. Plasmid pRF33D gave the highest activity and was chosen for large scale transfections of HEK293 cells and enzyme purification.
# Since ACC enzyme activities in crude cell lysates were very low, enrichment of ACCβ enzyme expressed in HEK293 cells was achieved by a single anion exchange chromatography step. Cell lysates were run over a 5 ml Econo Pac High Q column (Bio-Rad, #732-0027). Bound proteins were eluted by a gradient of NaCl from 0 to 1 M in 50 mM Tris-HCl, pH 7.5, 1 mM DTT, 5% glycerol. Fractions containing high ACCβ enzyme activity were pooled and stored at −20° C.
# Standard ACCβ enzyme assays, in a total volume of 100 μl, contained 50 mM HEPES-KOH, pH 7.5, 10 mM K-citrate, 10 mM MgSO4, 1 mM ATP, 0.1 mM DTT, 2% DMSO, 0.1 mg/ml fatty acid-free BSA, 0.2 mM acetyl-CoA, 2 mM KHCO3, 0.2 mM [^14C]NaHCO3 (50-60 mCi/mmol) and cell lysate or purified ACCβ enzyme. Reactions were incubated at 37° C. for 45 min. and stopped by the addition of 50 μl of 2 N HCl. Terminated reactions were incubated at 50° C. over night to evaporate non-incorporated [^14C]NaHCO3. [^14C]-labeled malonyl-CoA reaction product was quantitated by liquid scintillation counting after the addition of 20 μl of Microscint 20 (Canberra Packard, #6013621) on a TopCount NXT microplate scintillation counter (Canberra Packard).
# Inhibition of ACCβ activity was determined at saturating substrate concentrations with two-fold serial dilutions of test compounds spanning a concentration range of at least two log units. IC50 values were calculated with the GraFit software (Erithacus Software Ltd.). Kinetic parameters (Km, Vmax and K0.5) were determined by varying one substrate (or allosteric effector) in a two-fold serial dilution over a concentration range of at least two log units while keeping all other substrates at constant saturating concentrations. Fitting to the Michaelis-Menten equation (for calculation of Km of substrates) and fitting to the Hill equation (for calculation of K0.5of the allosteric activator K-citrate) was done with the GraFit software. To determine the mode of action of Soraphens, determinations of Km for ATP and acetyl-CoA and of K0.5 for K-citrate were repeated in the absence and in the presence of the three different Soraphens at 0.5, 1 and 2 times their IC50 and the data were fitted to the equation for non-competitive inhibition with the GraFit software.
# [2] = test system: differentiated L6 cells;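 further: differentiated rat L6 myotubes fed [14C]-palmitate, with oxidation read as 14CO2 trapped on filters and counted by liquid scintillation after 3 to 8 h at 37 °C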
# Description: (§1) Labeling medium to assay oxidation of fatty acids was composed of glucose-deficient DMEM containing 3.7 g/l NaHCO3, 25 mM HEPES-NaOH, 0.5% fatty acid-free bovine serum albumin (BSA), 0.1% ethanol, 0.5% DMSO (or test compounds dissolved in DMSO), 5 mM D-glucose, and 16 μM unlabeled palmitate plus 0.25 μM [U-^14C]palmitate (approx. 800 mCi/mmol). After the addition of labeling medium, the cell culture plates were sealed air tight with self adhesive Super Sealing Film (Life Systems Design, #02-2796-3001). Before sealing, twelve 1 cm^2 squares of filter paper (Schleicher & Schuell, #GB004) pretreated with 50 μl of highly basic tissue solubilizer solution NCSII (Amersham Pharmacia, #NNCS-502) were attached to the lower side of the sealing film. Upon sealing of the tissue culture plates, the filters were positioned in the center above each well, and served to capture the evolving ^14CO2 that was produced by the cells in each individual well. After an incubation between 3 to 8 hours at 37° C., the filters were removed from the sealing film and the captured ^14CO2 was quantitated by liquid scintillation counting with 2 ml of scintillation cocktail BCS-NA (Amersham Pharmacia, #NBCS204) in a Tri-Carb liquid scintillation counter (Canberra Packard).
# (§2) Cultivation of the differentiating rat muscle cell line L6 for fatty acid oxidation assays was performed as follows. For routine passaging, L6 cells (ATCC) were grown in T75 flasks in 15 ml of MEM Alpha medium (Gibco BRL Life Technologies, #22571-038), containing 10% heat inactivated FBS and 1% antibiotic/antimycotic solution (Gibco BRL Life Technologies, #15240-062). Incubation was done at 37° C. in a humid atmosphere containing 5% CO2. The cells were passaged twice per week by trypsinization.
# (§3) For fatty acid oxidation assays, each well of a 12-well tissue culture plate was seeded with 2 to 5×10^4 cells in 1 ml of MEM Alpha, 10% FBS, 1% antibiotic/antimycotic solution. After 3 days, medium was exchanged by 1 ml of the same, fresh medium. After 5 days, medium was exchanged again, this time by 1 ml of medium containing 2% FBS, 1% antibiotic/antimycotic solution. After 7 days, the cells were fully differentiated and formed large multinucleated myotubes. At this stage, the medium was replaced by 1 ml of glucose-deficient DMEM supplemented with 3.7 g/l NaHCO3 and 25 mM HEPES-NaOH followed by a starvation period of 2 to 6 hours at 37° C. […] The compounds were tested at three different concentrations (2, 0.2 and 0.02 μM) on differentiated L6 cells.
# [3] = test system: HepG2 cells; assay: Fatty acid (palmitate) oxidation assay with human liver hepatoma cells HepG2; type: cell-based; conditions: for Stimulation of palmitate / fatty acid oxidation (in words): HepG2
# Description: For routine passaging, HepG2 cells (American Type Culture Collection, ATCC) were grown in T75 flasks (Falcon, #353136) in 15 ml of Dulbecco's modified Eagle medium (DMEM, Sigma, #D5796), containing 10% heat inactivated fetal bovine serum (FBS, Summit Biotechnology, #S-100-05) and 1% Penicillin/Streptomycin (Sigma, #P4333). […] The cells were passaged once per week by trypsinization and an additional change of medium was done after 3 to 4 days after passaging.
# [4] = test system: differentiated L6 cells; assay: Fatty acid (palmitate) oxidation assay with differentiated rat L6 muscle cells;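 further: differentiated rat L6 myotubes fed [14C]-palmitate, with oxidation read as 14CO2 trapped on filters and counted by liquid scintillation after 3 to 8 h at 37 °C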
# Description: as §1, §2, §3
# T1 sequence (O00763 whole entry): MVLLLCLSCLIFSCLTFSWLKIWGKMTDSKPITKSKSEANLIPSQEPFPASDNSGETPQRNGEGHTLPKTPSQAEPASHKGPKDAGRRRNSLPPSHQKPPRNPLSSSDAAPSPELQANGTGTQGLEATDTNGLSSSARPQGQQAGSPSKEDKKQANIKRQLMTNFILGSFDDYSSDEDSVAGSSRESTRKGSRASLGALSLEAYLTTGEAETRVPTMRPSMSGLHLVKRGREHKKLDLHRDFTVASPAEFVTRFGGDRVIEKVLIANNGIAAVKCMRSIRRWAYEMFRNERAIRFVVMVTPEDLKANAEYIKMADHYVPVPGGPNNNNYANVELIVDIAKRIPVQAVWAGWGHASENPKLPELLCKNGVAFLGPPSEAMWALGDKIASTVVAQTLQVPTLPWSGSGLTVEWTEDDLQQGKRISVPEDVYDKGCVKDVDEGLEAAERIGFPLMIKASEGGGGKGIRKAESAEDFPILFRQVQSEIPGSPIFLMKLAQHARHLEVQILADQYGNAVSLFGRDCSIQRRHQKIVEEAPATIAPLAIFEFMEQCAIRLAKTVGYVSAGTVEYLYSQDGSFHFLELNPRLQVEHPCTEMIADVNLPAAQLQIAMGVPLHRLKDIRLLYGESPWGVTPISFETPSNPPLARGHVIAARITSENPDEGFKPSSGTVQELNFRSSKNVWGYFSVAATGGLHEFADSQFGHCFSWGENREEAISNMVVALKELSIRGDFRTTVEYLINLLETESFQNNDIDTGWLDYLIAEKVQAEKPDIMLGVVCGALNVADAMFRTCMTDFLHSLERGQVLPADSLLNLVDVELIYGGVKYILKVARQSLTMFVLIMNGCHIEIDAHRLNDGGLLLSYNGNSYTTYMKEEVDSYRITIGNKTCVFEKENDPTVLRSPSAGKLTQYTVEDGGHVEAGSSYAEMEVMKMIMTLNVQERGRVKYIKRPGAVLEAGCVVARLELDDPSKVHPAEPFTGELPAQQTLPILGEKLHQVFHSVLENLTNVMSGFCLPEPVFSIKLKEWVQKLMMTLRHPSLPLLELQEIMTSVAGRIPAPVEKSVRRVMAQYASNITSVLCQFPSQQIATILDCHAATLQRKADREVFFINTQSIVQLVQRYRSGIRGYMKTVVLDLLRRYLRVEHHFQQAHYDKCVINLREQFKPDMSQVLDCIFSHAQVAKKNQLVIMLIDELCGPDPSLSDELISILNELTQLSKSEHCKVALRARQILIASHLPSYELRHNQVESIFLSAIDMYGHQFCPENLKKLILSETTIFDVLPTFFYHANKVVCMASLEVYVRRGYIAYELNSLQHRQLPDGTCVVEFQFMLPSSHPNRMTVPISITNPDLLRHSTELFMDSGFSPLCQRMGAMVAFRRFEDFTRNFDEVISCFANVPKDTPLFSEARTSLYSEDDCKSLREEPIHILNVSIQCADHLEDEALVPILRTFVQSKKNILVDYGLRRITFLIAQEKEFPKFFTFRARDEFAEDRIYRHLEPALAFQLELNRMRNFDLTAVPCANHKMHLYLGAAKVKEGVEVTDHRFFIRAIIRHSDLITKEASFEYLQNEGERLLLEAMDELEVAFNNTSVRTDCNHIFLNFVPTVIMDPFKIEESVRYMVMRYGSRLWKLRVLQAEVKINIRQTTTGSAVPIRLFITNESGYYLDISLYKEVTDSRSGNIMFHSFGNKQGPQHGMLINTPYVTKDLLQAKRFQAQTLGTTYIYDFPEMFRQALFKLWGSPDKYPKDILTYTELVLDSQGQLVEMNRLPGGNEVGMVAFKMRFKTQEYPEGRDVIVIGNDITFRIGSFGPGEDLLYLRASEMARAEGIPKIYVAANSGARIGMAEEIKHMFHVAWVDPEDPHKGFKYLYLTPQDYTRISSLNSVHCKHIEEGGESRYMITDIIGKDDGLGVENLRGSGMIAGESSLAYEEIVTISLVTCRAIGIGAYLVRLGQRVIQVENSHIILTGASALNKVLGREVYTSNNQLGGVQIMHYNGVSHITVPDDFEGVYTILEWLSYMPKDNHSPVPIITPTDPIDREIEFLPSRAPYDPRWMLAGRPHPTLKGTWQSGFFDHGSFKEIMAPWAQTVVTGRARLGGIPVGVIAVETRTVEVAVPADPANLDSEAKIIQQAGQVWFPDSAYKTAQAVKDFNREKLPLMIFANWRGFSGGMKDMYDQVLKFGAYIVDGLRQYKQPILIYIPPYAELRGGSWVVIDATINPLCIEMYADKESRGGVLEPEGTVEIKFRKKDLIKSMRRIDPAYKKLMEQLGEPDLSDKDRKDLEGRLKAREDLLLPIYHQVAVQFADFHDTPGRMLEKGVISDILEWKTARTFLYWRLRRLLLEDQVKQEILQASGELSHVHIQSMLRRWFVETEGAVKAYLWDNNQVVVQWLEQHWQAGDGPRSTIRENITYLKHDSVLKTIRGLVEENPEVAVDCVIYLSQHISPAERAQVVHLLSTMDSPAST
Compound,IC50 [1] [nM],Effect on K0.5 of K-citrate [1],Effect on Vmax of the ACC enzyme reaction [1],"Fold stimulation over palmitate oxidation rate in the absence of test compounds ([3]; HepG2, 10 μM) [fold]","Palmitate oxidation rate ([3]; HepG2, 10 μM)",Stimulation of palmitate / fatty acid oxidation (in words) [3],"Fold stimulation over palmitate oxidation rate in the absence of test compounds ([3]; HepG2, 25 μM) [fold]","Palmitate oxidation rate ([3]; HepG2, 25 μM)",further results
"CO[C@@H]1[C@@H](O)[C@H](C)[C@H]2OC1(O)[C@H](C)C(=O)O[C@H](c1ccccc1)CCCC[C@H](O)[C@H](O)/C=C/[C@@H]2C [Cpd (Ib), Soraphen A 4-α]",200,did not change,dose-dependent decrease,2.8,10.8 +/− 0.4 pmol · h^−1 · well^−1,,,,"Fold stimulation ([2]; L6, Table 2, 0.02 μM): 1.0 fold; Palmitate oxidation rate ([2]; L6, Table 2, 0.02 μM): 8.8 +/− 0.3 pmol · h^−1 · well^−1; Fold stimulation ([2]; L6, Table 2, 0.2 μM): 1.1 fold; Palmitate oxidation rate ([2]; L6, Table 2, 0.2 μM): 10.0 +/− 1.4 pmol · h^−1 · well^−1; Fold stimulation ([2]; L6, Table 2, 2 μM): 1.5 fold; Palmitate oxidation rate ([2]; L6, Table 2, 2 μM): 13.5 +/− 1.4 pmol · h^−1 · well^−1"
"CCCC(=NOCC)C1=C(O)CC(C2CCCSC2)CC1=O (stereo not shown) [Cycloxidim, 2-(1-Ethoxyimino-butyl)-3-hydroxy-5-(tetrahydro-thiopyran-3-yl)-cyclohex-2-enone]",,,,,,did not stimulate,0.9,3.5 +/− 0.2 pmol · h^−1 · well^−1,
"CC(Oc1ccc(Oc2ccc(Cl)cc2Cl)cc1)C(=O)O (stereo not shown) [Diclofop, 2-[p-(2,4-Dichlorophenoxy)phenoxy]propionic acid]",,,,,,did not stimulate,0.8,3.1 +/− 1.3 pmol · h^−1 · well^−1,
"CO[C@H]1CC(O)CC[C@@H](c2ccccc2)OC(=O)[C@@H](C)C2(O)O[C@H]([C@@H](C)[C@H](O)[C@H]2OC)[C@@H](C)/C=C/[C@H]1O (stereo partly drawn) [Cpd (Ic), Soraphen B 2-α]",1750,did not change,dose-dependent decrease,1.6,6.1 +/− 0.4 pmol · h^−1 · well^−1,,,,"Fold stimulation ([4]; L6, Table 2, 0.02 μM): 0.9 fold; Palmitate oxidation rate ([4]; L6, Table 2, 0.02 μM): 8.2 +/− 0.5 pmol · h^−1 · well^−1; Fold stimulation ([4]; L6, Table 2, 0.2 μM): 1.0 fold; Palmitate oxidation rate ([4]; L6, Table 2, 0.2 μM): 8.8 +/− 0.5 pmol · h^−1 · well^−1; Fold stimulation ([4]; L6, Table 2, 2 μM): 1.1 fold; Palmitate oxidation rate ([4]; L6, Table 2, 2 μM): 10.2 +/− 1.3 pmol · h^−1 · well^−1"
"CC(Oc1ccc(Oc2ncc(C(F)(F)F)cc2Cl)cc1)C(=O)O (stereo not shown) [Haloxyfop, 2-[4-(3-chloro-5-trifluormethyl-2-pyridinyloxy)phenoxy] propionic acid]",,,,,,did not stimulate,1.0,3.6 +/− 0.4 pmol · h^−1 · well^−1,
"CCCCCCCCCCCCCCOc1ccc(C(=O)O)o1 [TOFA, 5-(Tetradecyloxy)-2-furoic acid, reference compound]",,,,,,,2.1,8.1 +/− 0.7 pmol · h^−1 · well^−1,"Fold stimulation ([4]; L6, Table 3, 0.25 μM): 1.1 fold; Palmitate oxidation rate ([4]; L6, Table 3, 0.25 μM): 5.8 +/− 0.4 pmol · h^−1 · well^−1; Fold stimulation ([4]; L6, Table 3, 2.5 μM): 1.5 fold; Palmitate oxidation rate ([4]; L6, Table 3, 2.5 μM): 8.0 +/− 0.7 pmol · h^−1 · well^−1; Fold stimulation ([4]; L6, Table 3, 25 μM): 1.3 fold; Palmitate oxidation rate ([4]; L6, Table 3, 25 μM): 7.2 +/− 0.3 pmol · h^−1 · well^−1; Maximal stimulation of palmitate oxidation ([4]; differentiated L6 cells, up to 25 μM): 1.5 fold"
